Experimental data: patent publication US8592421B2, “Cyclic bioisosters of purine system derivatives and a pharmaceutical composition based thereon” (priority 2003, dated 2013)

Assays:
thrombocytes [1] = assay: ADP-induced aggregation of thrombocytes after intravenous administration (in vivo); parameters: species or system rabbit
Procedure: The experiments were carried out on male rabbits of the “Chinchilla” breed having a mass of 2.7±0.3 kg. 18-24 hours prior to the experiment they were deprived of feed while preserving free access to water.
To obtain plasma enriched with thrombocytes, blood was taken from a cut of a marginal vein of the rabbit ear, the sample was stabilized with 3.8% of sodium citrate solution in a ratio of 9:1 and centrifuged at 200 g (1000 rev/min) for 10 minutes. The top supernatant layer enriched with thrombocytes was transferred by an automatic dropper into a silicone test tube and kept at 37° C. The plasma enriched with thrombocytes contained, on the average, […]. If this content exceeded the specified 3×10^8 blood platelets in 1 liter, this sample was diluted to the necessary concentration with plasma deprived of thrombocytes, which was obtained by centrifuging blood at 650 g during 10 minutes.
The measurements of the optical density of the samples were made on two-channel aggregometer of the “Chronolog” Company (USA). A flask containing 490 mkl of plasma rich with thrombocytes was placed in a device, into which a magnetic agitator covered with Teflon was lowered. The index of maximum amplitude of aggregation (MA) in percent of a fall of the plasma optical density under effect of the aggregation inductor was recorded. The control index MA of plasma was compared with the MA of plasma incubated for 3 minutes with different concentrations of the compounds: from 10^−3 to 10^−7 in vitro experiments or with plasma obtained 15, 30, 60 and 120 minutes after intravenous administration of different doses of the compounds in vivo experiments.
The process of aggregation of thrombocytes was recorded with the help of a computer; on the monitor screen the there were depicted curves reflecting changes of the optical density of the plasma enriched which was taken as a standard 100% compared to the optical density of the non-thrombocyte plasma taken for 0% content of thrombocytes.
The antiaggregative capability of compounds 2, 15, 21, 37, according to the invention was tested in experiments in vivo. Introduced to the test animals intravenously were an aggregation inductor ADP at a concentration of 10^−5 M was and then the compounds according to the invention. The doses of the compounds were in a range from 15 to 60 mg/kg.
For leveling the different effects of the compounds in different days due the ambient temperature, humidity and other parameters, 2 animals of each series were taken for experiments every day. Under “series” there is understood a group of 6 animals used for studying one of the doses of the compounds.
The blood for obtaining plasma enriched with thrombocytes was taken from marginal vein of the rabbit ear: in the control group—directly before introducing the tested compounds; in investigated groups—15 minutes after introducing these compounds and then after 30, 60, 120 minutes and so on up to the moment when the effect of suppression of aggregation disappeared.
The quantity of thrombocytes was counted before the experiment and at the end thereof in each plasma sample.

[2] = Chronic toxicity of suppositories: biochemical indexes of blood serum; format: in vivo, rats; conditions: male rats, suppositories, 1 month; for Cholesterol in blood serum: control 3.02 ± 0.08; for Urea in blood serum: control 8.44 ± 0.60; for Glucose in blood serum: control 9.76 ± 0.15; for ALT in blood serum: control 11.33 ± 1.96; for AST in blood serum: control 19.13 ± 1.02; for Bilirubin in blood serum: control 35.93 ± 2.19; for Creatinine in blood serum: control 40.23 ± 2.84; for Alkalinous phosphatase in blood serum: control 40.74 ± 1.57; for Total protein in blood serum: control 94.89 ± 6.67;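 on all read-outs here: inbred rats dosed rectally with softened suppositories, controls given matching volumes of sterile medical liquid paraffin, serum sampled one month into a two-month dosing course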
Procedure: The experiments were conducted on inbred rats.
Two doses of preparations used in the experiments: 50 mg/kg and 500 mg/kg. Before the administration, the suppositories were softened by heating in a glass water bath at a temperature of 38-39° C., the soft mass was collected in tuberculin syringe in a volume of 1 ml, a needle with oliva was attached to the syringe, and the preparatory mass was introduced into the rectum of the animal for a depth of 1.5-2.0 cm. The animals of the control group were administered with sterile medical liquid paraffin in a volume corresponding to the volume of the investigated suppository. A complete course of administration of drugs to the animals was two months. A complex of laboratory diagnostic investigations was carried out one month after the beginning of the administration of the preparation to the animal—in a middle of the course (8 animals), two months after ending the course (8 animals) and three months after ending the recovery period of one month (8 animals). The mass of the body of the rats in the first month of administration of the preparation was determined weekly, and then once in two weeks. On the basis of the dynamics of an index of the mass of the animal body, the volume of preparation being administered was corrected taking into account the test dose.

plasma hemostasis = assay: Partial activated thromboplastin time (PATT) after intravenous administration; format: in vivo, rabbit
Procedure: The static parameters of the blood and plasma coagulation (partial activated thromboplastin time, thrombin time, maximum coagulation activity (test for auto coagulation) were determined using the Behnk Electronic coagulometer (Germany). The operating principle of this instrument is based on the fact that the formed blood clot breaks the contacts of the pulse counter in the flask-pin circuit, said pin permanently oscillating in a vertical plane. The moment of formation of the clot is registered by stopping the stop watch hand.
The measurements were effected at a constant temperature of 37° C. maintained by a temperature control unit.

thrombocytes [3] = assay: ADP-induced aggregation of thrombocytes in vitro (Born method, plasma enriched with thrombocytes); format: cell-based, rabbit; conditions: 3-minute incubation, ADP 10^−5 M

Structure (SMILES): O=c1[nH][nH]c(=O)c2c(Br)ncnc12.[K] [Compound 37, potassium salt of 4-bromine-pyrimido[4,5-D]-6H-pyridazine-5,8-dione]
- MA - drop of optical density (thrombocytes [1]; 15.0 mg/kg intravenously, after 15 minutes, control 50.1 ± 1.7): 42.9 ± 1.6 %
- MA - drop of optical density (thrombocytes [1]; 15.0 mg/kg intravenously, after 30 minutes, control 50.1 ± 1.7): 41.9 ± 1.6 %
- MA - drop of optical density (thrombocytes [1]; 15.0 mg/kg intravenously, after 60 minutes, control 50.1 ± 1.7): 45.9 ± 1.6%
- MA - drop of optical density (thrombocytes [1]; 15.0 mg/kg intravenously, after 120 minutes, control 50.1 ± 1.7): 48.7 ± 2.1%
- MA - drop of optical density (thrombocytes [1]; 30.0 mg/kg intravenously, after 15 minutes, control 61.0 ± 1.3): 43.5 ± 2.0 %
- MA - drop of optical density (thrombocytes [1]; 30.0 mg/kg intravenously, after 30 minutes, control 61.0 ± 1.3): 42.0 ± 1.4 %
- MA - drop of optical density (thrombocytes [1]; 30.0 mg/kg intravenously, after 60 minutes, control 61.0 ± 1.3): 41.6 ± 1.4 %
- MA - drop of optical density (thrombocytes [1]; 30.0 mg/kg intravenously, after 120 minutes, control 61.0 ± 1.3): 58.4 ± 1.7%
- MA - drop of optical density (thrombocytes [1]; 60.0 mg/kg intravenously, after 15 minutes, control 48.6 ± 1.3): 43.4 ± 1.8 %
- MA - drop of optical density (thrombocytes [1]; 60.0 mg/kg intravenously, after 30 minutes, control 48.6 ± 1.3): 42.4 ± 0.7 %
- MA - drop of optical density (thrombocytes [1]; 60.0 mg/kg intravenously, after 60 minutes, control 48.6 ± 1.3): 46.2 ± 2.0%
- MA - drop of optical density (thrombocytes [1]; 60.0 mg/kg intravenously, after 120 minutes, control 48.6 ± 1.3): 47.3 ± 1.7%
- Cholesterol in blood serum ([2]; 50 mg/kg): 2.48 ± 0.62 mmol/L
- Urea in blood serum ([2]; 50 mg/kg): 9.36 ± 0.62 Mkmol/l
- Glucose in blood serum ([2]; 50 mg/kg): 9.9 ± 0.51 mM
- ALT in blood serum ([2]; 50 mg/kg): 8.98 ± 2.43 unit/l
- AST in blood serum ([2]; 50 mg/kg): 19.97 ± 2.78 unit/1
- Bilirubin in blood serum ([2]; 50 mg/kg): 42.17 ± 3.28 mmol/L
- Creatinine in blood serum ([2]; 50 mg/kg): 46.84 ± 2.92 mkmol/l
- Alkalinous phosphatase in blood serum ([2]; 50 mg/kg): 41.86 ± 5.26 unit/l
- Total protein in blood serum ([2]; 50 mg/kg): 89.44 ± 7.22 g/L
- Cholesterol in blood serum ([2]; 500 mg/kg): 2.64 ± 0.46 mmol/L
- Urea in blood serum ([2]; 500 mg/kg): 10.57 ± 0.56 Mkmol/l
- Glucose in blood serum ([2]; 500 mg/kg): 10.9 ± 0.84 mM
- ALT in blood serum ([2]; 500 mg/kg): 9.56 ± 1.34 unit/l
- AST in blood serum ([2]; 500 mg/kg): 18.21 ± 1.87 unit/1
- Bilirubin in blood serum ([2]; 500 mg/kg): 41.45 ± 7.18 mmol/L
- Creatinine in blood serum ([2]; 500 mg/kg): 47.13 ± 9.82 mkmol/l
- Alkalinous phosphatase in blood serum ([2]; 500 mg/kg): 42.18 ± 2.34 unit/l
- Total protein in blood serum ([2]; 500 mg/kg): 70.88 ± 7.24 g/L
- PATT, T (plasma hemostasis; 15.0 mg/kg intravenously, after 15 minutes, control 37.0 ± 0.2): 37.0 ± 0.2 s
- PATT, T (plasma hemostasis; 15.0 mg/kg intravenously, after 30 minutes, control 37.0 ± 0.2): 37.1 ± 0.1 s
- PATT, T (plasma hemostasis; 15.0 mg/kg intravenously, after 60 minutes, control 37.0 ± 0.2): 37.0 ± 0.2 s
- PATT, T (plasma hemostasis; 15.0 mg/kg intravenously, after 120 minutes, control 37.0 ± 0.2): 36.9 ± 0.1 s
- PATT, T (plasma hemostasis; 30.0 mg/kg intravenously, after 15 minutes, control 33.3 ± 0.8): 33.1 ± 0.1 s
- PATT, T (plasma hemostasis; 30.0 mg/kg intravenously, after 30 minutes, control 33.3 ± 0.8): 33.3 ± 0.1 s
- PATT, T (plasma hemostasis; 30.0 mg/kg intravenously, after 60 minutes, control 33.3 ± 0.8): 33.3 ± 0.2 s
- PATT, T (plasma hemostasis; 30.0 mg/kg intravenously, after 120 minutes, control 33.3 ± 0.8): 33.0 ± 0.4 s
- PATT, T (plasma hemostasis; 60.0 mg/kg intravenously, after 15 minutes, control 32.5 ± 0.3): 32.5 ± 0.1 s
- PATT, T (plasma hemostasis; 60.0 mg/kg intravenously, after 30 minutes, control 32.5 ± 0.3): 32.3 ± 0.2 s
- PATT, T (plasma hemostasis; 60.0 mg/kg intravenously, after 60 minutes, control 32.5 ± 0.3): 32.4 ± 0.1 s
- PATT, T (plasma hemostasis; 60.0 mg/kg intravenously, after 120 minutes, control 32.5 ± 0.3): 32.6 ± 0.3 s
- effect on the PATT (plasma hemostasis; doses 15.0, 30.0, 60.0 mg/kg): do not affect the PATT
- MA - fall of optical density of plasma, % to the standard (thrombocytes [3]; 10^−3 M, control 60.8 ± 3.4): 46.9 ± 2.7 %
- MA - fall of optical density of plasma, % to the standard (thrombocytes [3]; 10^−4 M, control 60.0 ± 2.1): 47.1 ± 2.0 %
- MA - fall of optical density of plasma, % to the standard (thrombocytes [3]; 10^−5 M, control 52.5 ± 2.1): 40.6 ± 1.7 %
- MA - drop of optical density, % (thrombocytes [3]; 10^−6 M, control 52.8 ± 1.8): 48.1 ± 2.9%
- MA - drop of optical density, % (thrombocytes [3]; 10^−7 M, control 51.5 ± 2.1): 50.1 ± 1.0%
